These results are taken from patent US7863449B2, “Modulators of muscarinic receptors” (Vertex Pharmaceuticals Incorporated, priority 2004, dated 2011).

One experiment addresses T1, M1 muscarinic receptor (Homo sapiens, UniProt P11229).
T1 construct: expressed in transfected cells; host or cells: CHO (M1-CHO)
T1 sequence (P11229 1-460): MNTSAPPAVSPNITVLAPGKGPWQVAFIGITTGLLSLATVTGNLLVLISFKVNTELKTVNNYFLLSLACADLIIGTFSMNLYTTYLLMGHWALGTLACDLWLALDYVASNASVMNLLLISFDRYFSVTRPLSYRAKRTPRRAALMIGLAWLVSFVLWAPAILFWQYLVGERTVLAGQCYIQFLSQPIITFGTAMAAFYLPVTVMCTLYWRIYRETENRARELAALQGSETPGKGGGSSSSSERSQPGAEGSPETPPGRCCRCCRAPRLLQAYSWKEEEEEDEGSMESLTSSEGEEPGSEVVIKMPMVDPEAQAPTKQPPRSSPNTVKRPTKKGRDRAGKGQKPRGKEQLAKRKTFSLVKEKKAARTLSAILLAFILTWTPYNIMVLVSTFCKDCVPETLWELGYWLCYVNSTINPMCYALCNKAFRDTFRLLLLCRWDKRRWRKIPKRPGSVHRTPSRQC
As to the kind of experiment: Functional mobilization of intracellular calcium (FLIPR), M1-CHO cells. To be noted: for Emax: 100% efficacy is the maximum response obtained using Carbachol as a control; for M1 Activity: M1-CHO cells, FLIPR calcium mobilization. In kind it is cell-based. Put shortly: (§1)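 Calcium flux recorded 60 s (ex 488, em 540 nm) in dye-loaded M1- or M4-CHO cells in pH 7.4 buffer with 1 mM probenecid. Inhibition measured against carbachol EC80 after 15 min compound pre-incubation or co-addition; agonism measured by compound addition alone. Final DMSO 0.5%.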
In general terms: A change in cytosolic calcium serves as a functional read-out for many receptors and channels.

Another experiment concerns the target T2, M4 muscarinic receptor (Homo sapiens, UniProt P08173).
T2 construct: expressed in transfected cells; host or cells: CHO (M4-CHO)
T2 sequence (P08173 1-479): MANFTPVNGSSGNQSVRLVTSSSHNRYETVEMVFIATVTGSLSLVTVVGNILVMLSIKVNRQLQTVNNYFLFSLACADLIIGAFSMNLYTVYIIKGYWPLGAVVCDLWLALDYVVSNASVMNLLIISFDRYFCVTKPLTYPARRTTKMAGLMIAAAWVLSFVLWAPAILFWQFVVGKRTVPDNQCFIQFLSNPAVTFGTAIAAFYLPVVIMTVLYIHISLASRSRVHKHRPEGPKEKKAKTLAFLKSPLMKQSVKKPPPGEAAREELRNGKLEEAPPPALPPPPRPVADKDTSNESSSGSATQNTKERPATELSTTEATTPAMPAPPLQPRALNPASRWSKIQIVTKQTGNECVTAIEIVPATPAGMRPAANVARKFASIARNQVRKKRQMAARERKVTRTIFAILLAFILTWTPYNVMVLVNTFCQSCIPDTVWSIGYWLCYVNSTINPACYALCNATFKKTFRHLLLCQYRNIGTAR
As to the kind of experiment: Functional mobilization of intracellular calcium (FLIPR), M4-CHO cells. The conditions noted are these: for Emax: 100% efficacy is the maximum response obtained using Carbachol as a control; for M4 Activity: M4-CHO cells, FLIPR calcium mobilization. In kind it is cell-based. Put shortly:
as §1

Turning to `CCOC(=O)N1C2CCC1CC(N1CCC3(CC1)CN(S(=O)(=O)c1ccc(-c4ccccc4)cc1)Cc1ccccc13)C2` (stereo not shown) [compound 245], on M1 muscarinic receptor, the Emax (usually the greatest response seen or fitted, relative to the assay's reference) is 25 to 100% and the “M1 Activity” value is “++ (activity was measured to be from 1.0 μM to 5.0 μM)”. Further, at M4 muscarinic receptor, the Emax is 25 to 100% and the “M4 Activity” value is on record as “++ (activity was measured to be from 1.0 μM to 5.0 μM)”.

Take `CCOC(=O)N1C2CCC1CC(N1CCC3(CC1)CN(S(=O)(=O)c1c(C)noc1C)Cc1ccccc13)C2` (stereo not shown) [compound 246]: on M1 muscarinic receptor, the Emax was 25 to 100% and the “M1 Activity” value is “+++ (activity was measured to be less than 1.0 μM)”. Besides, on M4 muscarinic receptor, the Emax was above 100% and the “M4 Activity” value was “+++ (activity was measured to be less than 1.0 μM)”.

Regarding `CC(=O)N1Cc2ccccc2C2(CCN(Cc3cccc(F)c3)CC2)C1` [compound 247], at M1 muscarinic receptor, the Emax is below 25% and the “M1 Activity” value was “+ (activity was measured to be greater than 5.0 μM)”. Besides, at M4 muscarinic receptor, the Emax is below 25% and the “M4 Activity” value is listed as “+ (activity was measured to be greater than 5.0 μM)”.

On to `COCCOC(=O)N1C2CCC1CC(N1CCC3(CC1)CN(S(=O)(=O)N(C)C)Cc1ccccc13)C2` (stereo not shown) [compound 249], for which, on M1 muscarinic receptor, the maximum response (Emax) fell in the range of 25 to 100% and the “M1 Activity” value is reported as “+++ (activity was measured to be less than 1.0 μM)”. On M4 muscarinic receptor, the maximal response (Emax) was in the range of 25 to 100% and the “M4 Activity” value is on record as “+++ (activity was measured to be less than 1.0 μM)”.

As for `CCOC(=O)N1CCC(N2CCC3(CC2)CN(C(=O)C2CCC2)Cc2ccccc23)CC1` [compound 250], on M1 muscarinic receptor, the Emax lay within 25 to 100% and the “M1 Activity” value is recorded as “+++ (activity was measured to be less than 1.0 μM)”. At M4 muscarinic receptor, the Emax was 25 to 100% and the “M4 Activity” value is “+++ (activity was measured to be less than 1.0 μM)”.

As to `CCOC(=O)N1C2CCC1CC(N1CCC3(CC1)CN(S(=O)(=O)c1ccc(C(F)(F)F)cc1)Cc1ccccc13)C2` (stereo not shown) [compound 251], on M1 muscarinic receptor, the Emax fell in the range of 25 to 100% and the “M1 Activity” value is recorded as “+++ (activity was measured to be less than 1.0 μM)”. Also, at M4 muscarinic receptor, the Emax lay within 25 to 100% and the “M4 Activity” value is given as “+++ (activity was measured to be less than 1.0 μM)”.

Take `CC(=O)N1Cc2ccccc2C2(CCN(CC3CCN(C(=O)OC4CCCC4)CC3)CC2)C1` [compound 252]: on M1 muscarinic receptor, the Emax was below 25% and the “M1 Activity” value is listed as “+ (activity was measured to be greater than 5.0 μM)”. Further, on M4 muscarinic receptor, the Emax is below 25% and the “M4 Activity” value was “+ (activity was measured to be greater than 5.0 μM)”.

As for `CCOC(=O)N1C2CCC1CC(N1CCC3(CC1)CN(S(=O)(=O)c1cccc(Cl)c1)Cc1ccccc13)C2` (stereo not shown) [compound 253], at M1 muscarinic receptor, the Emax fell in the range of 25 to 100% and the “M1 Activity” value is given as “+++ (activity was measured to be less than 1.0 μM)”. Also, at M4 muscarinic receptor, the Emax was 25 to 100% and the “M4 Activity” value is “+++ (activity was measured to be less than 1.0 μM)”.

As to `CCCOC(=O)N1Cc2ccccc2C2(CCN(C3CCN(C(=O)OCC)CC3)CC2)C1` [compound 254], at M1 muscarinic receptor, the Emax was in the range of 25 to 100% and the “M1 Activity” value is on record as “+++ (activity was measured to be less than 1.0 μM)”. Further, on M4 muscarinic receptor, the maximal response (Emax) fell in the range of 25 to 100% and the “M4 Activity” value is on record as “+++ (activity was measured to be less than 1.0 μM)”.

On to `CCOCCN1CCC2(CC1)CN(C(C)=O)Cc1ccccc12` [compound 256], for which the Emax at M1 muscarinic receptor and at M4 muscarinic receptor was below 25% throughout.

In the case of `CC(=O)N1Cc2ccccc2C2(CCN(C3CCN(C(=O)OC4CCC4)CC3)CC2)C1` [compound 258], on M1 muscarinic receptor, the Emax was 25 to 100% and the “M1 Activity” value was “+++ (activity was measured to be less than 1.0 μM)”. For the same compound, at M4 muscarinic receptor, the Emax is 25 to 100% and the “M4 Activity” value is “+++ (activity was measured to be less than 1.0 μM)”.

In the case of `CCOC(=O)N1CCC(N2CCC3(CC2)CN(C(=O)c2nc(C)oc2C)Cc2ccccc23)CC1` [compound 261], at M1 muscarinic receptor, the Emax lay in the range of 25 to 100% and the “M1 Activity” value was “+++ (activity was measured to be less than 1.0 μM)”. In addition, at M4 muscarinic receptor, the Emax was 25 to 100% and the “M4 Activity” value is recorded as “+++ (activity was measured to be less than 1.0 μM)”.

Take `CCOC(=O)N1CCC(CN2CCC3(CC2)CN(C(=O)OC2CCCC2)Cc2ccccc23)CC1` [compound 263]: at M1 muscarinic receptor, the Emax lay within 25 to 100% and the “M1 Activity” value is listed as “+++ (activity was measured to be less than 1.0 μM)”. For the same compound, on M4 muscarinic receptor, the Emax fell in the range of 25 to 100% and the “M4 Activity” value is given as “+++ (activity was measured to be less than 1.0 μM)”.

Turning to `CC(=O)N1Cc2ccccc2C2(CCN(CC3CCCOC3)CC2)C1` (stereo not shown) [compound 266], on M1 muscarinic receptor, the Emax was below 25% and the “M1 Activity” value was “+ (activity was measured to be greater than 5.0 μM)”. On M4 muscarinic receptor, the Emax is below 25% and the “M4 Activity” value is reported as “+ (activity was measured to be greater than 5.0 μM)”.

`O=C1NC2(CCN(CC3CC4C=CC3C4)CC2)c2ccccc21` (stereo not shown) [compound 267, 1′-(bicyclo[2.2.1]hept-5-en-2-ylmethyl)spiro[isoindoline-1,4′-piperidin]-3-one]: at M1 muscarinic receptor, the Emax was in the range of 25 to 100% and the “M1 Activity” value is on record as “++ (activity was measured to be from 1.0 μM to 5.0 μM)”. Further, on M4 muscarinic receptor, the Emax was 25 to 100% and the “M4 Activity” value is on record as “++ (activity was measured to be from 1.0 μM to 5.0 μM)”.

Take `CC(=O)N1Cc2ccccc2C2(CCN(C3CCSCC3)CC2)C1` [compound 268]: at M1 muscarinic receptor, the Emax is 25 to 100% and the “M1 Activity” value was “++ (activity was measured to be from 1.0 μM to 5.0 μM)”. In addition, at M4 muscarinic receptor, the Emax was in the range of 25 to 100% and the “M4 Activity” value was “++ (activity was measured to be from 1.0 μM to 5.0 μM)”.

For `CCOC(=O)N1CCC(CN2CCC3(CC2)CN(C(=O)C(C)C)Cc2ccccc23)CC1` [compound 270], on M1 muscarinic receptor, the maximal response (Emax) was 25 to 100% and the “M1 Activity” value was “+++ (activity was measured to be less than 1.0 μM)”. In addition, on M4 muscarinic receptor, the Emax lay in the range of 25 to 100% and the “M4 Activity” value was “+++ (activity was measured to be less than 1.0 μM)”.

In the case of `CC(=O)N1Cc2ccccc2C2(CCN(Cc3cccnc3)CC2)C1` [compound 274], on M1 muscarinic receptor, the Emax is below 25% and the “M1 Activity” value is recorded as “+ (activity was measured to be greater than 5.0 μM)”. Besides, on M4 muscarinic receptor, the Emax is below 25% and the “M4 Activity” value is “+ (activity was measured to be greater than 5.0 μM)”.

For `CCOC(=O)N1CCC(CN2CCC3(CC2)CN(C(=O)c2nc(C)oc2C)Cc2ccccc23)CC1` [compound 275], at M1 muscarinic receptor, the maximal response (Emax) lay in the range of 25 to 100% and the “M1 Activity” value is on record as “+++ (activity was measured to be less than 1.0 μM)”. Further, at M4 muscarinic receptor, the maximal response (Emax) was 25 to 100% and the “M4 Activity” value is “+++ (activity was measured to be less than 1.0 μM)”.

On to `COC(=O)c1ccc(CN2CCC3(CC2)CN(C(C)=O)Cc2ccccc23)cc1` [compound 276], for which, on M1 muscarinic receptor, the Emax is 25 to 100% and the “M1 Activity” value is “++ (activity was measured to be from 1.0 μM to 5.0 μM)”. In addition, on M4 muscarinic receptor, the Emax was 25 to 100% and the “M4 Activity” value is “++ (activity was measured to be from 1.0 μM to 5.0 μM)”.

`CCOC(=O)N1CCC(N2CCC3(CC2)OC(=O)c2ccc(C)cc23)CC1` [compound 277]: at M1 muscarinic receptor, the Emax is 25 to 100% and the “M1 Activity” value was “+++ (activity was measured to be less than 1.0 μM)”. Moreover, at M4 muscarinic receptor, the Emax was in the range of 25 to 100% and the “M4 Activity” value was “+++ (activity was measured to be less than 1.0 μM)”.
